According to patent US20200069702A1, “ORAL PHARMACEUTICAL COMPOSITIONS COMPRISING AN UNMICRONIZED SELECTIVE PROGESTERONE RECEPTOR AS ACTIVE AGENT” (Repros Therapeutics Inc., priority 2016, published 2020):

Test system: uterine fibroids
Assay: Phase 2 study of orally administered Formulation B in women with uterine fibroids
Assay type: in vivo, human
Description: After menses occurred, a second 18 week course of treatment followed.

## COCC(=O)[C@@]1(OC(C)=O)CC[C@H]2[C@@H]3CCC4=CC(=O)CCC4=C3[C@@H](c3ccc(N(C)C)cc3)C[C@@]21C [CDB-4124, 21-methoxy-17a-acetoxy-11β-(4 N, N-dimethylaminophenyl)-19-norpregna-4,9-diene-3,20-dione]
Oral 12 mg once per day, after two 18 week cycles, median, p=0.0004 vs placebo
  reduction in fibroid size (volume) compared to baseline: 64.9%
Oral 12 mg once per day, end of second 18 week course (36 weeks total active treatment)
  subjects who achieved amenorrhea: 100%
Oral 12 mg once per day, p=0.0211 vs placebo
  improvement in Uterine Fibroid Symptom Severity Score (UFSQOL), LOCF median: 70.9%
Vaginally treated subjects (comparison)
  subjects who achieved amenorrhea: 50%
